Results taken from the supplement of paper PMC10307832.

Columns and labels:
Assay in all cases: relative viability (nuclei count vs DMSO), 5 days (fraction); higher = more cells survive
[1] = compound: COc1cc2c(Oc3ccc4[nH]c(C)cc4c3F)ncnc2cc1OCCCN1CCCC1 [Cediranib] + CC(C)C[C@H](NC(=O)[C@H](Cc1ccccc1)NC(=O)c1cnccn1)B(O)O [Bortezomib] (partner 0.002 µM)
Procedure, shortened: (§1)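 Relative viability is defined as nuclei in treated wells over nuclei in vehicle wells. Duplicate plates were run and medians reported. Lung cancer cell lines in 1536-well plates were dosed by pin tool one day after seeding, with one drug or with a fixed anchor-drug dose plus five library-drug doses (not always all listed) in √10 steps, and nuclei were counted after 5 days.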

[2] = compound: Nc1ncn([C@H]2C[C@H](O)[C@@H](CO)O2)c(=O)n1 [Decitabine] + O=C(c1cc(Cc2n[nH]c(=O)c3ccccc23)ccc1F)N1CCN(C(=O)C2CC2)CC1 [Olaparib] (partner 8 µM)
Procedure, shortened: as §1

[3] = compound: O=C(C[C@H]1NCCC[C@@H]1O)Cn1cnc2cc(Br)c(Cl)cc2c1=O (racemic) [Halofuginone] + CS(=O)(=O)N1CCN(Cc2cc3nc(-c4cccc5[nH]ncc45)nc(N4CCOCC4)c3s2)CC1 [Pictilisib] (partner 1 µM)
Procedure, shortened: as §1

[4] = compound: O=C(C[C@H]1NCCC[C@@H]1O)Cn1cnc2cc(Br)c(Cl)cc2c1=O (racemic) [Halofuginone] + O=C(CCCCCCC(=O)Nc1ccccc1)NO [Vorinostat] (partner 1 µM)
Procedure, shortened: as §1

Q: How did the relative viability ([1]; first compound 0.04 µM) turn out when UMC-11 was run?
A: Its relative viability is 1.02.

Q: What about the relative viability ([1]; first compound 0.1265 µM) of the same cell line?
A: Its relative viability is 0.442.

Q: And the relative viability ([1]; first compound 0.4 µM)?
A: The relative viability was 0.683.

Q: What about the relative viability ([1]; first compound 1.265 µM) of the same cell line?
A: The relative viability was 0.628.

Q: What about the relative viability ([1]; first compound 4 µM) of the same cell line?
A: The relative viability was 0.547.

Q: What about the relative viability ([2]; first compound 0.04 µM) of the same cell line?
A: The relative viability was 0.312.

Q: And the relative viability ([2]; first compound 0.1265 µM)?
A: Its relative viability is 0.301.

Q: What about the relative viability ([2]; first compound 0.4 µM) of the same cell line?
A: Its relative viability is 0.273.

Q: And the relative viability ([2]; first compound 1.265 µM)?
A: The relative viability was 0.218.

Q: What about the relative viability ([2]; first compound 4 µM) of the same cell line?
A: Its relative viability is 0.2.

Q: And the relative viability ([3]; first compound 0.001 µM)?
A: Its relative viability is 0.9.

Q: And the relative viability ([3]; first compound 0.003162 µM)?
A: The relative viability was 0.76.

Q: What about the relative viability ([3]; first compound 0.01 µM) of the same cell line?
A: The relative viability was 0.772.

Q: And the relative viability ([3]; first compound 0.03162 µM)?
A: Its relative viability is 0.758.

Q: What about the relative viability ([3]; first compound 0.1 µM) of the same cell line?
A: Its relative viability is 0.648.

Q: And the relative viability ([4]; first compound 0.001 µM)?
A: Its relative viability is 0.428.

Q: What about the relative viability ([4]; first compound 0.003162 µM) of the same cell line?
A: Its relative viability is 0.381.

Q: And the relative viability ([4]; first compound 0.01 µM)?
A: Its relative viability is 0.348.

Q: What about the relative viability ([4]; first compound 0.03162 µM) of the same cell line?
A: Its relative viability is 0.334.

Q: And the relative viability ([4]; first compound 0.1 µM)?
A: Its relative viability is 0.205.
